Our source for the IC50 values is patent US11479551B2, “MTA-cooperative PRMT5 inhibitors” (Mirati Therapeutics, Inc., priority 2019, dated 2022).

Where two headings read alike, the source gives them in different places.

Experiment [1] relates to HCT116 homozygous MTAP knockout cells. The experiment is described as follows: Proliferation assay (CellTiter-Glo, 10 days of treatment), HCT116 MTAP knockout. Type of experiment: cell-based. The following applies: read-out: Proliferation HCT116MTAP_KO IC50. As for the experimental part:
(§1) 1. HCT116 MTAP Knockout Model
(§2) HCT116 cells were genetically engineered to knock out the function of both MTAP alleles using a CRISPR/Cas9 system and an sgRNA targeting the MTAP gene. Following Cas9/MTAP sgRNA transduction, clones were screened to confirm that each allele of the MTAP gene had been inactivated (i.e., homozygous MTAP knock out) creating an MTAP-deficient cell.
(§3) Control samples were analyzed in parallel.
Briefly, on Day 0, 250 HCT116 parental or HCT116 homozygous MTAP knockout cell were seeded in 96 well plates in McCoy's 5A supplemented with 10% fetal bovine serum and pen/strep and the cells were incubated overnight at 37° C. plus 5% CO2.
The following day, cells were treated with DMSO vehicle control or a dose response of PRMT5 inhibitors and incubated at 37 C plus 5% CO2 for five days. On Day 6, the cells were trypsinized and split 1:10 into new 96-well plates with fresh medium containing the same concentration of PRMT5 inhibitor and incubated for an additional 5 days at 37° C. plus 5% CO^2.
On Day 11, the viability of the cells was measured using a CTG assay kit (CellTiter-Glo; Promega cat.no G7573) in accordance with the manufacturer's instructions. The IC50 values for each compound after 10 days of treatment were calculated using GraphPad PRISM software.
In general terms: ATP-based viability assays read luminescence as a measure of living cells.

The test system of experiment [2] is PRMT5-dependent Symmetric Di-methyl Arginine signal in HCT116 homozygous MTAP knockout cells. The experiment is described as follows: SYM11 In-Cell Western, HCT116 MTAP knockout. The format is cell-based. The following applies: HCT116 homozygous MTAP knockout cells, 4 days of treatment, SYM11/DRAQ5 ratio, read-out: In-cell-Western (SYM11) HCT116 MTAP_KO IC50. As for the experimental part: as §1, §2, §3
Briefly, on Day 0, 2,000 HCT116 parental or HCT116 homozygous MTAP knockout cells were seeded in 96 well plates in McCoy's 5A supplemented with 10% fetal bovine serum and pen/strep and the cells were incubated overnight at 37° C. plus 5% CO2. The following day, cells were treated with DMSO vehicle control or a dose response of PRMT5 inhibitors, and incubated at 37° C. plus 5% CO^2 for four days.
After 4 days of treatment, the cells were fixed by adding 50 μl of 4% paraformaldehyde solution to each well and the cells were incubated for 20 min at room temperature. The paraformaldehyde solution was removed, 150 μl of ice-cold methanol was added and the plate was placed −20° C. for 10 minutes. The methanol was removed, 150 μl of Odyssey Blocking buffer+0.05% Tween20 was added and the plate was incubated at room temperature with shaking for one hour.
The primary SYM11 antibody solution was removed by aspiration and the wells were washed three consecutive times with phosphate buffered saline containing 0.1% Tween-20 (PBST).
The secondary antibody solution was removed by aspiration and the wells were washed three consecutive times with PB ST.
The SYM11 signal and the DRAQ5 signal were quantified using a Li-Cor Odyssey machine reading at […], respectively. The SYM11/DRAQ5 ratio was used to calculate the inhibition of Symmetric Dimethyl Arginine as percent of DMSO control.

In another experiment the target is PRMT5/MEP50 complex (Homo sapiens (Human), UniProt O14744). The experiment is described as follows: PRMT5:MEP50 HotSpot Assay (full-length histone H2A substrate, plus and minus MTA). Type of experiment: biochemical. The following applies: in the presence of 2 μM MTA. In a few lines: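 Radiometric filter-binding format using recombinant full-length histone H2A as substrate. After the reaction was stopped, mixtures went onto filter paper and tritiated H2A was quantified by scintillation counting.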
Chain of PRMT5/MEP50 complex (O14744 2-637): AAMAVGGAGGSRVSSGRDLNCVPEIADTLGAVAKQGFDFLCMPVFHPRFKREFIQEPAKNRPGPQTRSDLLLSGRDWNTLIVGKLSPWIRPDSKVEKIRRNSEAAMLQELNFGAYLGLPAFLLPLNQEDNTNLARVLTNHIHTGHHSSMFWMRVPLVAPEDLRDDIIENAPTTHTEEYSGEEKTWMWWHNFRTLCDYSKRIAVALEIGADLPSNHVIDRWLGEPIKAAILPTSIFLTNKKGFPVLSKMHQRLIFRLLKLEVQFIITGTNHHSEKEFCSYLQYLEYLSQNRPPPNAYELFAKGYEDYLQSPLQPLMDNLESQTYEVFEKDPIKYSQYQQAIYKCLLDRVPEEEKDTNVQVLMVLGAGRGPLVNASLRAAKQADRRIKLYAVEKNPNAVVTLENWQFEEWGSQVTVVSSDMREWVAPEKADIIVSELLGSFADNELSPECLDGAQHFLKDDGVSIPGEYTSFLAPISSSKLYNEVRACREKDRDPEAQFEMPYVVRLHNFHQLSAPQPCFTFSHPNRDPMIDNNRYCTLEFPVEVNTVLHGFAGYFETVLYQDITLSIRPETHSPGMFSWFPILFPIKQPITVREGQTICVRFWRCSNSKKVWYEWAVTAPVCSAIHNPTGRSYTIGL
Chain of PRMT5/MEP50 complex (Q9BQA1 2-342 partner): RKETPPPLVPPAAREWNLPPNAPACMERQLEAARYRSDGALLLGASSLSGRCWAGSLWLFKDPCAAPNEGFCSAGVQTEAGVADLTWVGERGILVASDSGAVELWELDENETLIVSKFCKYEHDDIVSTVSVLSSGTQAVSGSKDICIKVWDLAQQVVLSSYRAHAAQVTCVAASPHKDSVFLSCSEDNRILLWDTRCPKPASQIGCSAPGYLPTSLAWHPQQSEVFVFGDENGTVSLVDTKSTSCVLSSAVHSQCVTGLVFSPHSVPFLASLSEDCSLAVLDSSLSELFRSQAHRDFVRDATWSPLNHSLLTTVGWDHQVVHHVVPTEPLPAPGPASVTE

`Cn1ncc(-c2ccc3c(=O)[nH]nc(CN)c3c2)c1-c1ccc2ccccc2c1Cl` [Example 4-181, 4-(aminomethyl)-6-(5-(1-chloronaphthalen-2-yl)-1-methyl-1H-pyrazol-4-yl)phthalazin-1(2H)-one]: the IC50 in experiment [1] (Homo sapiens, HCT-116, 240 h) came to 450 nM; in experiment [2] (Homo sapiens, HCT-116, 96 h), 25 nM; at PRMT5/MEP50 complex (IC50 + 2 μM MTA) it was 401 nM.

Consider `CC(N)c1n[nH]c(=O)c2ccc(-c3cnn(C)c3-c3cccc(Cl)c3C#N)cc12` (single isomer, unassigned) [Example 9-3, 2-[4-[4-(1-aminoethyl)-1-oxo-2H-phthalazin-6-yl]-2-methyl-pyrazol-3-yl]-6-chloro-benzonitrile], for which the figures for the IC50 (in experiment [1]; in experiment [2]; at PRMT5/MEP50 complex (IC50 + 2 μM MTA)) were 4820 nM, 141 nM and 1270 nM, respectively.

Take `Cn1ncc(-c2ccc3c(=O)[nH]nc(CN)c3c2)c1-c1cccc2c1COCC2` [Example 4-221, 4-(aminomethyl)-6-(5-(isochroman-8-yl)-1-methyl-1H-pyrazol-4-yl)phthalazin-1(2H)-one]: the IC50 is 2380 nM in experiment [1] (Homo sapiens, HCT-116, 240 h); 196 nM in experiment [2] (Homo sapiens, HCT-116, 96 h); 501 nM at PRMT5/MEP50 complex (IC50 + 2 μM MTA).

As for `Cn1ncc(-c2c(-c3ccc4c(=O)[nH]nc(CN)c4c3)cnn2C)c1C#N` [Example 4-186, 4-(4-(aminomethyl)-1-oxo-1,2-dihydrophthalazin-6-yl)-1′,2-dimethyl-1′H,2H-[3,4′-bipyrazole]-5′-carbonitrile], the IC50 came out at 5780 nM in experiment [1] (Homo sapiens, HCT-116, 240 h); 5110 nM in experiment [2] (Homo sapiens, HCT-116, 96 h); 2310 nM on PRMT5/MEP50 complex (IC50 + 2 μM MTA).

Consider `Cn1cc(-c2ccc(C#N)c(-c3c(-c4ccc5c(=O)[nH]nc(CN)c5c4)cnn3C)c2)cn1` [Example 12-6, 2-[4-[4-(aminomethyl)-1-oxo-2H-phthalazin-6-yl]-2-methyl-pyrazol-3-yl]-4-(1-methylpyrazol-4-yl)benzonitrile], for which the IC50 in experiment [1] (Homo sapiens, HCT-116, 240 h) came out at 7470 nM; in experiment [2] (Homo sapiens, HCT-116, 96 h), 380 nM; on PRMT5/MEP50 complex (IC50 + 2 μM MTA), 730 nM.

Turning to `Cn1ncc(-c2ccc3c(=O)[nH]nc(CN)c3c2)c1-c1cccc2ccncc12` [Example 4-222, 4-(aminomethyl)-6-(5-(isoquinolin-8-yl)-1-methyl-1H-pyrazol-4-yl)phthalazin-1(2H)-one], the IC50 is 5340 nM in experiment [1] (Homo sapiens, HCT-116, 240 h); 296 nM in experiment [2] (Homo sapiens, HCT-116, 96 h); 255 nM at PRMT5/MEP50 complex (IC50 + 2 μM MTA).

Take `Cn1ncc(-c2ccc3c(=O)[nH]nc(CN)c3c2)c1-c1c(C#N)cc2ccccc2c1Cl` (single isomer, unassigned) [Example 16-5]: the IC50 is 2850 nM in experiment [1], 272 nM in experiment [2] and 994 nM at PRMT5/MEP50 complex (read-out: IC50 + 2 μM MTA).

For the molecule `Cn1ncc(-c2cc(Cl)c3c(=O)[nH]nc(CN)c3c2)c1-c1cccc(OC2CC2)c1C#N` [Example 10-14, 2-(4-(4-(aminomethyl)-8-chloro-1-oxo-1,2-dihydrophthalazin-6-yl)-1-methyl-1H-pyrazol-5-yl)-6-cyclopropoxybenzonitrile], the IC50 in experiment [1] (Homo sapiens, HCT-116, 240 h) is 88 nM; in experiment [2] (Homo sapiens, HCT-116, 96 h), 75 nM.

Regarding `Cn1ncc(-c2ccc3c(=O)[nH]nc(CN)c3c2)c1-c1cn(Cc2ccccc2)nc1C#N` [Example 4-212, 4-(4-(aminomethyl)-1-oxo-1,2-dihydrophthalazin-6-yl)-1′-benzyl-2-methyl-1′H,2H-[3,4′-bipyrazole]-3′-carbonitrile], the IC50 in experiment [1] (Homo sapiens, HCT-116, 240 h) is greater than 10000 nM; in experiment [2] (Homo sapiens, HCT-116, 96 h), greater than 10000 nM.

Take `CC(N)c1n[nH]c(=O)c2ccc(-c3cnn(C)c3-c3ccc4ccccc4c3C#N)cc12` (single isomer, unassigned) [Example 9-4, 2-[4-[4-(1-aminoethyl)-1-oxo-2H-phthalazin-6-yl]-2-methyl-pyrazol-3-yl]naphthalene-1-carbonitrile]: the IC50 in experiment [1] is 4180 nM; in experiment [2], greater than 1000 nM.

Take `Cc1cnc2ccc(-c3c(-c4ccc5c(=O)[nH]nc(CN)c5c4)cnn3C)c(C#N)c2c1` [Example 12-17, 6-[4-[4-(aminomethyl)-1-oxo-2H-phthalazin-6-yl]-2-methyl-pyrazol-3-yl]-3-methyl-quinoline-5-carbonitrile]: the IC50 in experiment [1] (Homo sapiens, HCT-116, 240 h) was determined as 85 nM; in experiment [2] (Homo sapiens, HCT-116, 96 h), 10 nM.

Take `Cn1nc(Cl)c(-c2c(-c3ccc4c(=O)[nH]nc(CN)c4c3)cnn2C)c1C#N` [Example 4-219, 4-(4-(aminomethyl)-1-oxo-1,2-dihydrophthalazin-6-yl)-3′-chloro-1′,2-dimethyl-1′H,2H-[3,4′-bipyrazole]-5′-carbonitrile]: the IC50 is 3610 nM in experiment [1] (Homo sapiens, HCT-116, 240 h) and greater than 1000 nM in experiment [2] (Homo sapiens, HCT-116, 96 h).

For `Cn1ncc(-c2ccc3c(=O)[nH]nc(CN)c3c2)c1-c1cc(-c2cnsc2)ccc1C#N` [Example 12-7, 2-(4-(4-(aminomethyl)-1-oxo-1,2-dihydrophthalazin-6-yl)-1-methyl-1H-pyrazol-5-yl)-4-(isothiazol-4-yl)benzonitrile], the IC50 in experiment [1] (Homo sapiens, HCT-116, 240 h) was determined as 4980 nM; in experiment [2] (Homo sapiens, HCT-116, 96 h), 427 nM; on PRMT5/MEP50 complex (IC50 + 2 μM MTA) it was 603 nM.

For the molecule `Cn1ncc(-c2ccc3c(=O)[nH]nc(CN)c3c2)c1-c1cccc2cncn12` [Example 4-233, 4-(aminomethyl)-6-(5-(imidazo[1,5-a]pyridin-5-yl)-1-methyl-1H-pyrazol-4-yl)phthalazin-1(2H)-one], the IC50 was 4730 nM in experiment [1] (Homo sapiens, HCT-116, 240 h) and greater than 1000 nM in experiment [2] (Homo sapiens, HCT-116, 96 h).

As for `COc1cc2ccccc2c(C#N)c1-c1c(-c2ccc3c(=O)[nH]nc(CN)c3c2)cnn1C` [Example 12-16, 2-[4-[4-(aminomethyl)-1-oxo-2H-phthalazin-6-yl]-2-methyl-pyrazol-3-yl]-3-methoxy-naphthalene-1-carbonitrile], the IC50 in experiment [1] (Homo sapiens, HCT-116, 240 h) stood at 75 nM; in experiment [1] it was 73 nM; in experiment [2], 0.4 nM; in experiment [2] (Homo sapiens, HCT-116, 96 h), 0.5 nM.

In the case of `Cn1ncc(-c2ccc3c(=O)[nH]nc(CN)c3c2)c1-c1c(F)ccc(OC2CC2)c1C#N` [Example 4-251, 2-(4-(4-(aminomethyl)-1-oxo-1,2-dihydrophthalazin-6-yl)-1-methyl-1H-pyrazol-5-yl)-6-cyclopropoxy-3-fluorobenzonitrile], the IC50 turned out to be 49 nM in experiment [1] (Homo sapiens, HCT-116, 240 h) and 8 nM in experiment [2] (Homo sapiens, HCT-116, 96 h).

`Cn1ncc(-c2ccc3c(=O)[nH]nc(CN)c3c2)c1-c1cn(-c2ccccc2)nc1C#N` [Example 4-214, 4-(4-(aminomethyl)-1-oxo-1,2-dihydrophthalazin-6-yl)-2-methyl-11-phenyl-1′H,2H-[3,4′-bipyrazole]-3′-carbonitrile]: the IC50 is 4400 nM in experiment [1] (Homo sapiens, HCT-116, 240 h) and greater than 10000 nM in experiment [2] (Homo sapiens, HCT-116, 96 h).

For `CCOc1cc(-c2cnn(C)c2-c2ccc3ccccc3c2C#N)cc2c(CN)n[nH]c(=O)c12` [Example 13-2, 2-[4-[4-(aminomethyl)-8-ethoxy-1-oxo-2H-phthalazin-6-yl]-2-methyl-pyrazol-3-yl]naphthalene-1-carbonitrile], the IC50 in experiment [1] (Homo sapiens, HCT-116, 240 h) is 149 nM; in experiment [2] (Homo sapiens, HCT-116, 96 h), 64 nM.

Take `CCOc1cc(-c2cnn(C)c2-c2c(F)cc3ccccc3c2C#N)cc2c(CN)n[nH]c(=O)c12` (single isomer, unassigned) [Example 16-3, 2-[4-[4-(aminomethyl)-8-ethoxy-1-oxo-2H-phthalazin-6-yl]-2-methyl-pyrazol-3-yl]-3-fluoro-naphthalene-1-carbonitrile]: the IC50 in experiment [1] worked out at 84 nM; in experiment [2] (Homo sapiens, HCT-116, 96 h) it was 15 nM.

`Cc1cc(-c2cnn(C)c2-c2c(F)cc3ccccc3c2C#N)cc2c(CN)n[nH]c(=O)c12` [Example 10-15, 2-(4-(4-(aminomethyl)-8-methyl-1-oxo-1,2-dihydrophthalazin-6-yl)-1-methyl-1H-pyrazol-5-yl)-3-fluoro-1-naphthonitrile]: the IC50 was determined as 13 nM in experiment [1] (Homo sapiens, HCT-116, 240 h) and 4 nM in experiment [2] (Homo sapiens, HCT-116, 96 h).
